Data reported in US11203754B2, “Microrna compositions and methods of making and using same” (Advanced ReGen Medical Technologies, LLC, priority 2016, dated 2021).
Values belong to the compound of their own block, whether it stands above or below them.

Legend:
CD34+ stem cell = assay: microRNA nucleofection into mature blood cells: CD34+ clonogenicity (CFU-GM); format: cell-based, human; settings: Table 8 Experiment #1; total 60 nM into mature blood cells; siRNA vehicle = 20, No Treatment = 10
Protocol: Candidate microRNAs involved in facilitating adoptive cellular restoration therapy were miR-146a, miR-103a, miR-106a and miR-19a. Combinations of candidate microRNAs were nucleofected at a total concentration of 60 nM into mature blood cells using the CD34+ cell human nucleofector kit (Lonza) and the human CD34+ cell protocol, and effect on CD34+ stem cell vitality and clonogenicity were evaluated compared to siRNA vehicle control. Further, the microRNA combination of miR-103a, miR-106b and miR-19a were nucleofected at a total concentration of 90 nM into mature blood cells using the P3 Primary Cell 4D-Nucleofector X Kit (Lonza) and the human T cell high efficiency protocol, and effect on T cell activation and cell-mediated cytotoxicity were evaluated compared to siRNA vehicle control. Additional candidate microRNAs involved in facilitating adoptive cellular restoration therapy identified were miR-1303, miR-7851-3p, miR-223, miR-4497, miR-619-5p and miR-1273f. Combinations of these additional candidate microRNAs were nucleofected at a total concentration of 60 nM into mature blood cells using the CD34+ cell human nucleofector kit (Lonza) and the human CD34+ cell protocol, and effect on CD34+ clonogenicity was evaluated compared to siRNA vehicle control.

[1] = tested on: adult stem cells in transwell culture; assay: Exosome production in transwell cultures with exosome inhibitors; format: cell-based; settings: BCI-137 10 μM, GW4869 3.5 μM, added Day 0 and Day 3, NONE = 710
Protocol: A series of transwell experiments were carried out by placing adult stem cells of a donor subject (i.e., donor cells) in the upper chamber of a transwell assembly while the adult stem cells of a receiver subject (i.e. receiver cells) were placed in the lower chamber. Referring to FIG. 2, the transwell culture 400 comprised an insert 410 having a permeable surface that allows the donor cells to uptake and secrete molecules on the basal and/or apical surfaces of the transwell. The transwell insert 410 comprised a permeable membrane with a 0.4 μm pore size. At least a portion of the donor cell sample 420 was applied to the transwell insert 410 while the receiver cell sample 430 was positioned within the lower compartment of the transwell culture with an appropriate amount of culture media.
(§1) Exosomes were collected and quantified to determine the effects of inhibitors on exosome production while RNA extracted from the exosomes were analyzed to determine exosome depletion and levels of RNA depletion.

SNORD68 = assay: Exosomal RNA (ExoRNA) level, SNORD68, with inhibitors; format: cell-based; settings: BCI-137 10 μM, GW4869 3.5 μM; NONE = 1
Protocol: as §1
(§2) SNORD68 and SNORD95 are small nucleolar RNAs.

SNORD95 = assay: Exosomal RNA (ExoRNA) level, SNORD95, with inhibitors; format: cell-based; settings: BCI-137 10 μM, GW4869 3.5 μM; NONE = 1
Protocol: as §1, §2

miRNAs in exosomes = assay: miRNA depletion in exosomes harvested from the heterochronic culture; format: cell-based
Protocol: as §1, §2

CD34+ cells [2] = assay: Effect of inhibitor on CD34+ differentiation potential and restoration; format: cell-based
From the text: as §2

CD34+ cells [3] = assay: Effect of inhibitors on cell function (total cell vitality, CD34+ cell vitality, CD34+ cell expansion); settings: inhibitor added to transwell culture
Protocol: (§3) To the transwell cultures was added either a pharmacological inhibitor of exosome biogenesis GW4869 (3.5 μM) or an inhibitor of exosome packaging BCI-137 (10 μM). […] Inhibitors were added to the transwell cultures upon initial seeding (Day 0) and again at Day 3.
(§4) Further analysis of the effect of the inhibitors on cell function was assessed by determining the total cell vitality, the CD34+ cell vitality and the extent of CD34+ cell expansion.

CD34+ cells [4] = tested on: CD34+ cells
Protocol: as §3, §4

Compound: miR-1303: isolated microRNA miR-1303 (SEQ ID NO:7) (UUUAGAGACGGGGUCUUGCUCU; listed as RNA, chemistry not given here; listed as Homo sapiens)
CD34+ Differentiation (# CFU-GM) (CD34+ stem cell): 32 # CFU-GM

Compound: miR-1273f: isolated microRNA miR-1273f (SEQ ID NO:9) (GGAGAUGGAGGUUGCAGUG; listed as RNA, chemistry not given here; listed as Homo sapiens)
CD34+ Differentiation (# CFU-GM) (CD34+ stem cell): 9 # CFU-GM

effect on the juvenile or mature cell health (CD34+ cells [3]): no effect
Compound: CC(NS(=O)(=O)c1ccc2[nH]c(=O)c(=O)[nH]c2c1)C(=O)O (stereo not shown) [BCI-137]
Exosome Production (# exosomes × 10^8) [1]: 604 # exosomes × 10^8 | Fold Change in ExoRNA SNORD68 (SNORD68): 0.24 Fold Change | Fold Change in ExoRNA SNORD95 (SNORD95): 0.33 Fold Change | depletion of miRNAs in exosomes (miRNAs in exosomes): effectively depleted miRNAs | restorative effects of adoptive cell restoration (CD34+ cells [2]; inhibition by BCI-137): blocked the restorative effects | differentiation in CD34+ heterochronic cells (CD34+ cells [2]; inhibition with BCI-137): decreased | differentiation potential in the CD34+ mature cells (CD34+ cells [2]; inhibition with BCI-137): increased

Compound: miR-223: isolated microRNA miR-223-5p (SEQ ID NO:5) (CGUGUAUUUGACAAGCUGAGUU; listed as RNA, chemistry not given here; listed as Homo sapiens)
CD34+ Differentiation (# CFU-GM) (CD34+ stem cell): 10 # CFU-GM

Compound: miR-4497: isolated microRNA miR-4497 (SEQ ID NO:6) (CUCCGGGACGGCUGGGC; listed as RNA, chemistry not given here; listed as Homo sapiens)
CD34+ Differentiation (# CFU-GM) (CD34+ stem cell): 20 # CFU-GM

Compound: miR-619-5p: isolated microRNA miR-619-5p (SEQ ID NO:8) (GCUGGGAUUACAGGCAUGAGCC; listed as RNA, chemistry not given here; listed as Homo sapiens)
CD34+ Differentiation (# CFU-GM) (CD34+ stem cell): 46 # CFU-GM

Compound: O=C(/C=C/c1ccc(/C=C/C(=O)Nc2ccc(C3=NCCN3)cc2)cc1)Nc1ccc(C2=NCCN2)cc1 [GW4869]
Exosome Production (# exosomes × 10^8) [1]: 558 # exosomes × 10^8 | Fold Change in ExoRNA SNORD68 (SNORD68): 0.43 Fold Change | Fold Change in ExoRNA SNORD95 (SNORD95): 0.67 Fold Change | depletion of miRNAs in exosomes (miRNAs in exosomes): effectively depleted miRNAs | toxicity to CD34+ cells (CD34+ cells [4]): appeared toxic

Compound: miR-7851-3p: isolated microRNA miR-7851-3p (SEQ ID NO:10) (UACCUGGGAGACUGAGGUUGGA; listed as RNA, chemistry not given here; listed as Homo sapiens)
CD34+ Differentiation (# CFU-GM) (CD34+ stem cell): 14 # CFU-GM
